{"source": "patent US20230000950A1", "about": "“COMPOSITION COMPRISING GLUCAGON AND GLP-1 AND GIP RECEPTOR DUAL AGONIST AND THERAPEUTIC USE OF SAME” (HANMI PHARM. CO., LTD., priority 2019, published 2023)", "molecules": {"B1": {"name": "tirzepatide (peptide)", "peptide": "YXEGTFTSDYSIXLDKIAQKAFVQWLIAGGPSSGAPPPS", "modifications": "not fully specified; X at positions 2 and 13 = 2-methylalanine (Aib); Lys 20 N6-[(22S)-22,42-dicarboxy-10,19,24-trioxo-3,6,12,15-tetraoxa-9,18,23-triazadotetracontan-1-oyl]; C-terminal serinamide"}}, "key": {"human GIP receptor [1]": {"target": "T1, human GIP receptor (Homo sapiens, UniProt P48546)", "T1 construct": "expressed in transfected cells; host or cells: CHO DG44", "T1 sequence (P48546 22-466)": "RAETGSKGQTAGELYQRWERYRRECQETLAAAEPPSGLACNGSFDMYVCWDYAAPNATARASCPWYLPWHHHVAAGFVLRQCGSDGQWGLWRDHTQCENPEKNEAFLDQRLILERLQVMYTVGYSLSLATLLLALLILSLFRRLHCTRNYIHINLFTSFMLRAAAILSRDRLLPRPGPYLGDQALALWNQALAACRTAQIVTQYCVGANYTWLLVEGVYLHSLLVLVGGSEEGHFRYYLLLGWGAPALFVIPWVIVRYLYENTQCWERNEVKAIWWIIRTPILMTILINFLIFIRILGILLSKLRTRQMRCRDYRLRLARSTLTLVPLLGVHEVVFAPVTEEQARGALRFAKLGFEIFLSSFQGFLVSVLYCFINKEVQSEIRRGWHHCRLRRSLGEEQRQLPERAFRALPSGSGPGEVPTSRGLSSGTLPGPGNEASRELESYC", "assay": "cAMP activity of dual agonist in cell line expressing human GIP receptor", "type": "cell-based", "conditions": "EC50 compared with native GIP, CHO DG44 cells", "excerpt": "(§1) and GIP A recombinant vector was constructed using the expression vector X0GC/dhfr so as to express human GLP-1 receptor and human GIP receptor, then transformed into CHO DG44 cells using lipofectamine, and selectively cultured in a selective medium containing G418 and methotrexate. From this, monoclonal cell lines were selected by limiting dilution. Among these, cell lines showing excellent concentration-dependent cAMP response to GLP-1 and GIP were finally selected.\n(§2) In the cell lines expressing human GLP-1 receptor and human GIP receptor produced in Example 6, the activity of the dual agonist synthesized in Example 7 was measured.\n(§3) Specifically, the transformed cell lines of Example 6 were subcultured 3 or 4 times a week, and then the subcultured cell lines were seeded in a 384-well plate by 6×10^3 per well and cultured for 24 hours. In HBSS (Hank's balanced salt solution) buffer containing 0.5 mM IBMX (3-isobutyl-1-methylxanthine), 0.1% BSA (bovine serum albumin), and 5 mM HEPES (4-(2-hydroxyethyl)-1-piperazineethanesulfonic acid), native GLP-1 and GIP were suspended at 200 nM and the dual agonist at 1600 nM, and then serially diluted 4-fold 10 times. This was applied to the cAMP assay kit (LANCE cAMP 384 kit, PerkinElmer) and added to each of the cultured cell lines, and then the fluorescence value was measured."}, "CD-HFD mouse model": {"tested_on": "CD-HFD mouse model", "assay": "CD-HFD (choline-deficient and high-fat, high-cholesterol diet) mouse model of NASH and fibrosis: NAS and liver collagen expression", "type": "in vivo", "conditions": "6 weeks repeated administration Q2D subcutaneous, vs CD-HFD vehicle control", "excerpt": "In order to verify the efficacy on NASH and fibrosis improvement by combined administration of the long-acting glucagon derivative and GLP-1/GIP dual agonist (tirzepatide) according to the present invention prepared in Examples, a CD-HFD (choline-deficient and high-fat, high-cholesterol diet) mouse model was used.\nMice induced by 8-week CD-HFD were divided into a vehicle control group, a long-acting glucagon derivative (1.3 nmol/kg, Q2D, subcutaneous) administration group, a dual agonist (73 nmol/kg, Q2D, subcutaneous) administration group, and a long-acting glucagon derivative and dual agonist combined administration group, and repeated administration was performed for 6 weeks. As a negative control group, a group administered with a vehicle to normal diet mice was used. After 6 weeks of repeated administration, the liver tissue of each mouse was taken as an autopsy, and the efficacy on NASH and fibrosis improvement was evaluated by measuring NAS (NAFLD activity score) through H&E staining and collagen expression through quantitative PCR.\nFor the statistical processing in all the cases, the vehicle group (control group) and the test groups were compared using one-way ANOVA, and the t-test was used to compare the additional efficacy of the combined administration group with that of the single administration group (* to ** p<0.05 to 0.001 vs. vehicle control group)."}, "[2]": {"tested_on": "high-fat diet-induced obese mouse", "assay": "High-fat diet-induced obese mice: body weight, fat weight, blood lipids, HOMA-IR, energy metabolism-related gene expression", "type": "in vivo", "conditions": "21 days, subcutaneous; long-acting glucagon derivative 2.0 nmol/kg once every two days, tirzepatide 20 nmol/kg once every two days, Saxenda 50 nmol/kg twice a day", "procedure": "A high-fat diet-induced obese mouse, which was widely used as an obese animal model, was used for this study. The body weight of the mice was about 50 g to 55 g before administration. During the study period, seven mice were housed and had free access to water. The lights were turned off from 6 P.M. to 6 A.M.\nThe administration was performed by subcutaneous injection in all cases.\nThe experiment was terminated on the 21st day, the changes in body weight of the mice corresponding to each group were measured every two days during the experiment. After the experiment was terminated, the fat weight, blood lipid levels, HOMA-IR, and energy metabolism-related gene expression in tissues were measured."}, "human GLP-1 receptor [3]": {"target": "T2, human GLP-1 receptor (Homo sapiens, UniProt P43220)", "T2 construct": "expressed in transfected cells; host or cells: CHO DG44", "T2 sequence (P43220 24-463)": "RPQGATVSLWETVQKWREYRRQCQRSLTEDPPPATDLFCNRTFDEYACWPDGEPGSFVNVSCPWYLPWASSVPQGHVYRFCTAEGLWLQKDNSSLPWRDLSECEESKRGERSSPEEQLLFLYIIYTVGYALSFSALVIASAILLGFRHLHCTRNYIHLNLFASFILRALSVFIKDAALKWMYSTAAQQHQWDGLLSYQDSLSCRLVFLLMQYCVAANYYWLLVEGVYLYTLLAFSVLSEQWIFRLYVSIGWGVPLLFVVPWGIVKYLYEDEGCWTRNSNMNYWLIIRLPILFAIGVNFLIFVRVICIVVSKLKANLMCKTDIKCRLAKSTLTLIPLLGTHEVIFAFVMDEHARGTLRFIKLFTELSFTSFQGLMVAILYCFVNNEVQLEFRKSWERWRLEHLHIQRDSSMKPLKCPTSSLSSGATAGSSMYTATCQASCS", "assay": "cAMP activity of dual agonist in cell line expressing human GLP-1 receptor", "type": "cell-based", "conditions": "EC50 compared with native GLP-1, CHO DG44 cells", "excerpt": "as §1, §2, §3"}, "[4]": {"conditions": "cited from earlier work"}, "human glucagon receptor": {"target": "human glucagon receptor (human, UniProt P47871 26-477)", "sequence (P47871 26-477)": "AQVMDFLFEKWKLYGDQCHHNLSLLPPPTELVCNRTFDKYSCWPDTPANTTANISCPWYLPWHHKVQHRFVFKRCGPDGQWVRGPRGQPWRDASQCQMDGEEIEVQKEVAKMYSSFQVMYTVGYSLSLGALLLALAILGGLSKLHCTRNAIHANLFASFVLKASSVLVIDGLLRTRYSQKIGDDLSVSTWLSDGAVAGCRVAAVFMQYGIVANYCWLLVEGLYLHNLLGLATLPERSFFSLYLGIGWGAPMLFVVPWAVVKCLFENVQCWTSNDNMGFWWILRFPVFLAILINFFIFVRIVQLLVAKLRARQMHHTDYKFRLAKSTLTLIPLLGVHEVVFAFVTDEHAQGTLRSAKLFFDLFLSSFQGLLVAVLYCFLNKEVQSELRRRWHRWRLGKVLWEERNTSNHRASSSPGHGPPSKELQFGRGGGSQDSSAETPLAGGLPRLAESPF", "assay": "cell-based or functional assay"}, "human GIP receptor [5]": {"target": "T3, human GIP receptor (human, UniProt P48546 22-466)", "T3 sequence (looked up)": "T1 sequence (P48546 22-466)", "assay": "cell-based or functional assay"}, "human GLP-1 receptor [6]": {"target": "human GLP-1 receptor (human, UniProt P43220 24-463)", "assay": "cell-based or functional assay"}}, "note": "Where two headings read alike, the source gives them in different places. Non-standard residues stand in square brackets, D forms with d. No end group written: not given here. Aib = CC(C)(N)C(=O)O"}
{"molecule": "CC[C@H](C)[C@H](NC(=O)[C@H](CC(C)C)NC(=O)[C@H](Cc1c[nH]c2ccccc12)NC(=O)[C@H](CCC(N)=O)NC(=O)[C@@H](NC(=O)[C@H](Cc1ccccc1)NC(=O)[C@H](C)NC(=O)[C@H](CCCCNC(=O)COCCOCCNC(=O)COCCOCCNC(=O)CC[C@H](NC(=O)CCCCCCCCCCCCCCCCCCC(=O)O)C(=O)O)NC(=O)[C@H](CCC(N)=O)NC(=O)[C@H](C)NC(=O)[C@@H](NC(=O)[C@H](CCCCN)NC(=O)[C@H](CC(=O)O)NC(=O)[C@H](CC(C)C)NC(=O)C(C)(C)NC(=O)[C@@H](NC(=O)[C@H](CO)NC(=O)[C@H](Cc1ccc(O)cc1)NC(=O)[C@H](CC(=O)O)NC(=O)[C@H](CO)NC(=O)[C@@H](NC(=O)[C@H](Cc1ccccc1)NC(=O)[C@@H](NC(=O)CNC(=O)[C@H](CCC(=O)O)NC(=O)C(C)(C)NC(=O)[C@@H](N)Cc1ccc(O)cc1)[C@@H](C)O)[C@@H](C)O)[C@@H](C)CC)[C@@H](C)CC)C(C)C)C(=O)N[C@@H](C)C(=O)NCC(=O)NCC(=O)N1CCC[C@H]1C(=O)N[C@@H](CO)C(=O)N[C@@H](CO)C(=O)NCC(=O)N[C@@H](C)C(=O)N1CCC[C@H]1C(=O)N1CCC[C@H]1C(=O)N1CCC[C@H]1C(=O)N[C@@H](CO)C(N)=O", "note": "[Dual agonist (tirzepatide)]", "values": [{"measurement": "Relative in vitro activity to native ligand (EC50), GIP receptor", "setting": "human GIP receptor [1]", "result": 6.7, "unit": "%"}, {"measurement": "NAS (NAFLD activity score)", "setting": "CD-HFD mouse model; long-acting glucagon derivative 1.3 nmol/kg, dual agonist 73 nmol/kg, H&E staining", "result": "significantly reduced"}, {"measurement": "collagen expression in liver tissue", "setting": "CD-HFD mouse model; quantitative PCR", "result": "significantly reduced"}, {"measurement": "change in body weight compared to before administration", "setting": "[2]", "result": "−19.39", "unit": "%"}, {"measurement": "Relative in vitro activity to native ligand (EC50), GLP-1 receptor", "setting": "human GLP-1 receptor [3]", "result": 1.3, "unit": "%"}]}
{"molecule": "CCCCCCCCCCC[C@@H](C[C@@H]1OC(=O)[C@H]1CCCCCC)OC(=O)[C@H](CC(C)C)NC=O", "note": "[orlistat]", "values": [{"measurement": "body weight loss effect", "setting": "[4]; taken for one year", "result": "about 4 kg"}]}
{"molecule": "Cc1c(C(=O)NN2CCCCC2)nn(-c2ccc(Cl)cc2Cl)c1-c1ccc(Cl)cc1", "note": "[rimonabant]", "values": [{"measurement": "side effects", "setting": "[4]; reported", "result": "central nervous system side effects"}]}
{"molecule": "CC(C)CC(N(C)C)C1(c2ccc(Cl)cc2)CCC1", "note": "(stereo not drawn) [sibutramine]", "values": [{"measurement": "side effects", "setting": "[4]; reported", "result": "cardiovascular side effects"}]}
{"molecule": "contrave", "values": [{"measurement": "side effects", "setting": "[4]; in vivo", "result": "cardiovascular side effects"}]}
{"molecule": "YXQGTFTSDYSKYLDSRRAQDFVQWLMNTC (X at position 2 = aminoisobutyric acid (Aib))", "note": "[glucagon derivative of SEQ ID NO: 44]", "values": [{"measurement": "In vitro activity (relative activity to SEQ ID NO: 1, %), cAMP assay, from EC50", "setting": "human glucagon receptor", "result": 75.4, "unit": "%"}]}
{"molecule": "Y[Aib]QGTFTSDYSCYLDEKRAKEFVQWLMNT", "note": "[glucagon derivative of SEQ ID NO: 45]", "values": [{"measurement": "In vitro activity (relative activity to SEQ ID NO: 1, %), cAMP assay, from EC50", "setting": "human glucagon receptor", "result": 5.2, "unit": "%"}]}
{"molecule": "B1", "values": [{"measurement": "Relative in vitro activity to native ligand (EC50), cAMP assay", "setting": "human GIP receptor [5]", "result": 6.7, "unit": "%"}, {"measurement": "Relative in vitro activity to native ligand (EC50), cAMP assay", "setting": "human GLP-1 receptor [6]", "result": 1.3, "unit": "%"}]}
{"molecule": "HSQGTFTSDYSKYLDSCDAQDFVQWLMNT", "note": "[glucagon derivative of SEQ ID NO: 4]", "values": [{"measurement": "In vitro activity (relative activity to SEQ ID NO: 1, %), cAMP assay, from EC50", "setting": "human glucagon receptor", "result": "< 0.1", "unit": "%"}]}
{"molecule": "HSQGTFTSDYSKYLDSCEAQDFVQWLMNT", "note": "[glucagon derivative of SEQ ID NO: 5]", "values": [{"measurement": "In vitro activity (relative activity to SEQ ID NO: 1, %), cAMP assay, from EC50", "setting": "human glucagon receptor", "result": 0.3, "unit": "%"}]}
{"molecule": "HSQGTFTSDYSKYLDSCEADDFVQWLMNT", "note": "[glucagon derivative of SEQ ID NO: 6]", "values": [{"measurement": "In vitro activity (relative activity to SEQ ID NO: 1, %), cAMP assay, from EC50", "setting": "human glucagon receptor", "result": "< 0.1", "unit": "%"}]}
{"molecule": "YSQGTFTSDYSKYLDSCEADDFVQWLMNT", "note": "[glucagon derivative of SEQ ID NO: 7]", "values": [{"measurement": "In vitro activity (relative activity to SEQ ID NO: 1, %), cAMP assay, from EC50", "setting": "human glucagon receptor", "result": "< 0.1", "unit": "%"}]}
{"molecule": "Y[Aib]QGTFTSDYSKYLDSCDAQDFVQWLINT", "note": "[glucagon derivative of SEQ ID NO: 8]", "values": [{"measurement": "In vitro activity (relative activity to SEQ ID NO: 1, %), cAMP assay, from EC50", "setting": "human glucagon receptor", "result": "< 0.1", "unit": "%"}]}
